Consider 2 molecules from patent US10303923B1, “Quantitation of NETosis using image analysis” (The University of North Carolina at Chapel Hill, priority 2018, dated 2019).

Assay [1] relates to Human neutrophils from healthy volunteers. As to the kind of experiment: NETosis quantitation by CNN image analysis in adherent neutrophils from healthy volunteers. The conditions noted are these: read-out: EC50 (concentration inducing 50% of neutrophils to undergo NETosis). The assay is classed as cell-based. From the text: This specification describes an assay for the assessment of 1) the EC50 of NETotic agonists in adherent human neutrophils and 2) the NETosis mechanism specific to these agonists. Neutrophils were isolated from peripheral blood of healthy volunteers and allowed to adhere to 96-well plates before stimulation with different concentrations of agonists. We established our assay with two widely used agonists, PMA, a PKC activator and A23187, a Ca+2 ionophore. NETosis data were acquired using the automated BD Pathway 855 Bio-imaging Systems. An image processing algorithm was created to distinguish two populations related to neutrophil nuclear size, intensity and texture. Our assay is the first to describe a semi-automated imaging and analysis method for the study of NETosis and is a positive step towards standardizing the quantitation of NETosis in isolated cells. This assay has potential applications in screening novel pharmaceuticals and in analyzing cells from patients with various diseases.
Adherent neutrophils were treated for 2 hours with either agonist or DMSO vehicle. DMSO treatment alone causes neutrophil NETosis reaching a maximum response of 30% with 0.16% DMSO. The resulting NETotic nuclei are visually indistinguishable from those observed with PMA- or A23187-treatments as shown graph 204. DMSO is the recommended solvent for both PMA and A23187. […]

Assay [2] relates to neutrophils from SCD patients. As to the kind of experiment: NETosis quantitation by CNN image analysis in neutrophils from SCD patients at steady-state. In kind it is cell-based, human. The settings on record: SCD patients at steady-state (n=7), 2 hours treatment, two-way ANOVA. From the text: We next applied this assay to an inflammatory disease that has been suspected of being influenced by NETosis; patients with sickle cell disease (SCD) suffer chronic inflammation due to recurrent ischemia/reperfusion injuries and are hypercoagulable. The hypercoagulability is thought to be due to at least in part to circulating NETs similar to other inflammatory diseases. Soluble components presumably from NETs (DNA and nucleosomes) are detectible in plasma from both SCD patients and humanized SCD mice^11, 12. Furthermore, neutrophils from healthy individuals exposed to plasma from SCD patients causes NET generation. Because SCD neutrophils function at a reduced capacity for oxidative burst and produce less ROS than non-SCD neutrophils, we asked whether the ROS-dependent NETosis pathway is affected^13-15. Only patients at steady-state were included in the study. […] Reduction of neutrophils' oxidative burst capacity also occurs in conditions such as chronic granulomatous disease (CGD), and results in reduced NETosis^16. The divergence of our results from those previously published are possibly due to our observation of NETosis in neutrophils directly without the use of a surrogate NETosis biomarker.
The same conditions for cell isolation and treatment were used for neutrophils from SCD patients at steady-state (n=7), and the results are shown in graphs 206 and 208. […]

“Also recorded” adds a separate entry of the source. Read-outs that look alike come from different tables or passages of the source.

Take `CNc1ccc2oc(C[C@H]3O[C@@]4(CC[C@H]3C)O[C@H]([C@H](C)C(=O)c3ccc[nH]3)[C@H](C)C[C@H]4C)nc2c1C(=O)O` [A23187, Calcimycin]: in assay [1] (Homo sapiens, Neutrophil, n=8, 2 hours treatment, PADIV-dependent pathway), the EC50 is 900 nM. For the same molecule, in assay [2], the “NETosis response of SCD neutrophils compared with non-SCD neutrophils” value was “responded similarly; also recorded: little difference was observed between SCD and non-SCD”.
`CCCCCCCCCCCCCC(=O)O[C@@H]1[C@@H](C)[C@@]2(O)[C@@H](C=C(CO)C[C@]3(O)C(=O)C(C)=C[C@@H]23)[C@@H]2C(C)(C)[C@]12OC(C)=O` [PMA]: the EC50 in assay [1] (n=11, 2 hours treatment, ROS-dependent pathway) stood at 2.1 nM. The “NETosis response of SCD neutrophils compared with non-SCD neutrophils” value in assay [2] is given as “comparatively insensitive; also recorded: responded poorly”.
